Experimental data reported in article PMC9166766 (Experimental & Molecular Medicine, 2022).
No end group written: not given here.

Legend:
[1] = system: Jurkat T cells (PMA and ionomycin-induced gene expression); test: mRNA sequencing of activated Jurkat T cells; format: cell-based, human; details: P+I 8 h
Description: We then extracted RNA from these cells. Construction of the cDNA library and next-generation sequencing was performed at LAS (Gimpo, Korea). We sequenced all samples on an Illumina NextSeq 500 system with 75 paired-end reads. For the RNA sequencing analysis, reads for each sample were aligned to the human genome (GRCh37/hg19 genome assembly) using STAR 2.4.0.1[25] with default settings. We used HOMER tools to quantify and normalize the defined genes in RefSeq transcripts. FPKM normalized genes were hierarchically clustered using Cluster3.0[26]. We visualized refined data with Java Treeview (http://jtreeview.sourceforge.net). We conducted gene ontology analysis of each cluster using the DAVID web tool (https://david.ncifcrf.gov). Finally, we visualized the expression levels of target genes using the Integrative Genomics Viewer (http://software.broadinstitute.org/software/igv). The raw data were submitted to the NCBI Gene Expression Omnibus under accession number GSE185561.
Fig. 3 The CABIN1 peptide inhibits T-cell activation. a Heatmap of altered genes affected by FK506 treatment or CABIN1 peptide expression upon T-cell activation. b Gene Ontology analysis of cluster III. c mRNA expression levels of genes included in cluster III. d qRT-PCR data of genes in c. The experiment was independently repeated at least three times, and the data are presented as the mean ± standard deviation. Statistical differences were determined using two-tailed Student’s t-test. *p < 0.05, **p < 0.01, ***p < 0.001, NC negative control.

[2] = Protein stability of HA-mCherry-VIVIT peptides in Jurkat T cells (western blot, FACS); format: cell-based; details: mCherry-tagged, vs VIVIT 15-mer
Description: We quantified the expression of mCherry-tagged VIVIT peptides using LSRII (SORP) (Becton Dickinson, Franklin Lakes, NJ, USA). We analyzed the results with FlowJo (Tree Star, Inc., Ashland, OR, USA).
Protein expression l evels of VIVIT peptides were detected with HA antibody in Jurkat T cells expressing HA-mCherry -VIVIT peptides. c mCherry expression intensity and distribution
cells/sample) d mRNA expression level of mCherry was measured by qRT -PCR. (n=4) Values shown are the mean ± standard deviation. SE, short exposure, LE, long expo sure, NC, negative

Q: With “CABIN1-L-1-2: 10 amino acids from proline 2146 to proline 2155 of full-length CABIN1; expressed GST-, GAL4 DBD- or HA-mCherry-tagged (PEITVTPPTP; also: expressed GST-, GAL4 DBD- or HA-mCherry-tagged, end not given here)” as the substance, how does the TDRD9 expression ([1]; NC 1.428, NC_P+I 25.902) read?
A: 1.888 FPKM

Q: And the LOC729603 expression ([1]; NC 1.468, NC_P+I 5.071)?
A: 3.329 FPKM

Q: And the PDGFA expression ([1]; NC 1.497, NC_P+I 26.809)?
A: 8.169 FPKM

Q: What about the PHACTR2 expression ([1]; NC 1.659, NC_P+I 9.467) of the same substance?
A: 2.791 FPKM

Q: What about the CABP1 expression ([1]; NC 1.702, NC_P+I 5.834) of the same substance?
A: 1.689 FPKM

Q: And the POU2AF1 expression ([1]; NC 1.84, NC_P+I 36.298)?
A: 2.971 FPKM

Q: What about the SPRY1 expression ([1]; NC 2.079, NC_P+I 12.391) of the same substance?
A: 4.901 FPKM

Q: What about the GFOD1 expression ([1]; NC 2.283, NC_P+I 12.861) of the same substance?
A: 6.312 FPKM

Q: And the DSTYK expression ([1]; NC 2.356, NC_P+I 7.198)?
A: 3.595 FPKM

Q: What about the FMNL2 expression ([1]; NC 2.395, NC_P+I 6.813) of the same substance?
A: 3.019 FPKM

Q: And the ADORA2A expression ([1]; NC 2.492, NC_P+I 11.633)?
A: 1.475 FPKM

Q: And the CD27 expression ([1]; NC 2.525, NC_P+I 27.462)?
A: 3.4 FPKM

Q: And the TNFRSF4 expression ([1]; NC 2.597, NC_P+I 31.683)?
A: 11.916 FPKM

Q: What about the REL expression ([1]; NC 2.654, NC_P+I 20.219) of the same substance?
A: 5.699 FPKM

Q: And the JAK2 expression ([1]; NC 2.788, NC_P+I 26.566)?
A: 8.45 FPKM

Q: And the LRRC8B expression ([1]; NC 2.89, NC_P+I 28.699)?
A: 4.298 FPKM

Q: What about the NPDC1 expression ([1]; NC 3.008, NC_P+I 8.759) of the same substance?
A: 5.64 FPKM

Q: What about the CD27-AS1 expression ([1]; NC 3.088, NC_P+I 14.958) of the same substance?
A: 4.613 FPKM

Q: And the CST7 expression ([1]; NC 3.315, NC_P+I 14.15)?
A: 3.175 FPKM

Q: And the TAGAP expression ([1]; NC 3.351, NC_P+I 128.498)?
A: 8.731 FPKM

Q: And the CD55 expression ([1]; NC 3.587, NC_P+I 39.451)?
A: 12.082 FPKM

Q: What about the GTDC1 expression ([1]; NC 3.595, NC_P+I 10.378) of the same substance?
A: 5.144 FPKM

Q: And the KCNK5 expression ([1]; NC 3.84, NC_P+I 14.865)?
A: 4.904 FPKM

Q: What about the MYO1D expression ([1]; NC 4.114, NC_P+I 11.118) of the same substance?
A: 5.995 FPKM

Q: What about the RDH10 expression ([1]; NC 4.125, NC_P+I 19.889) of the same substance?
A: 5.524 FPKM

Q: What about the COL27A1 expression ([1]; NC 4.149, NC_P+I 17.216) of the same substance?
A: 5.729 FPKM

Q: And the PLK3 expression ([1]; NC 4.432, NC_P+I 14.807)?
A: 7.036 FPKM

Q: What about the NFATC1 expression ([1]; NC 4.511, NC_P+I 15.287) of the same substance?
A: 3.916 FPKM

Q: And the ASAP1 expression ([1]; NC 4.678, NC_P+I 18.37)?
A: 9.052 FPKM

Q: And the GRK5 expression ([1]; NC 5.451, NC_P+I 21.464)?
A: 8.975 FPKM

Q: And the CCDC64 expression ([1]; NC 5.477, NC_P+I 33.545)?
A: 11.039 FPKM

Q: What about the ATG14 expression ([1]; NC 5.727, NC_P+I 30.239) of the same substance?
A: 11.252 FPKM

Q: What about the PELI1 expression ([1]; NC 5.755, NC_P+I 16.085) of the same substance?
A: 8.465 FPKM

Q: What about the ARHGEF3 expression ([1]; NC 6.146, NC_P+I 31.337) of the same substance?
A: 8.674 FPKM

Q: What about the PKIA expression ([1]; NC 6.444, NC_P+I 49.019) of the same substance?
A: 18.138 FPKM

Q: What about the LTBP4 expression ([1]; NC 7.304, NC_P+I 33.466) of the same substance?
A: 9.568 FPKM

Q: What about the LAMP3 expression ([1]; NC 8.064, NC_P+I 31.61) of the same substance?
A: 9.828 FPKM

Q: And the LAX1 expression ([1]; NC 8.344, NC_P+I 24)?
A: 7.578 FPKM

Q: What about the PTPN22 expression ([1]; NC 8.928, NC_P+I 45.38) of the same substance?
A: 5.119 FPKM

Q: And the VAMP1 expression ([1]; NC 9.566, NC_P+I 50.97)?
A: 14.752 FPKM

Q: And the NINJ1 expression ([1]; NC 10.319, NC_P+I 76.622)?
A: 54.452 FPKM

Q: And the KCNK1 expression ([1]; NC 10.828, NC_P+I 36.893)?
A: 13.139 FPKM

Q: What about the CD97 expression ([1]; NC 10.97, NC_P+I 49.481) of the same substance?
A: 21.496 FPKM

Q: And the FBXO34 expression ([1]; NC 11.735, NC_P+I 48.015)?
A: 18.386 FPKM

Q: And the TBC1D20 expression ([1]; NC 11.844, NC_P+I 35.808)?
A: 18.427 FPKM

Q: What about the MIR6775 expression ([1]; NC 12.409, NC_P+I 50.527) of the same substance?
A: 21.57 FPKM

Q: And the AGK expression ([1]; NC 14.395, NC_P+I 39.056)?
A: 14.306 FPKM

Q: And the FYN expression ([1]; NC 14.671, NC_P+I 58.084)?
A: 15.512 FPKM

Q: What about the MIR6821 expression ([1]; NC 17.553, NC_P+I 62.894) of the same substance?
A: 25.116 FPKM

Q: What about the NDFIP1 expression ([1]; NC 19.638, NC_P+I 54.615) of the same substance?
A: 24.432 FPKM

Q: What about the TBC1D4 expression ([1]; NC 20.739, NC_P+I 73.749) of the same substance?
A: 13.191 FPKM

Q: And the MAP2K3 expression ([1]; NC 21.676, NC_P+I 144.057)?
A: 43.237 FPKM

Q: What about the PTPN6 expression ([1]; NC 22.163, NC_P+I 77.092) of the same substance?
A: 20.806 FPKM

Q: And the FXYD5 expression ([1]; NC 25.643, NC_P+I 101.352)?
A: 42.856 FPKM

Q: And the BCL2L1 expression ([1]; NC 31.375, NC_P+I 113.956)?
A: 41.852 FPKM

Q: And the ATP6V1B2 expression ([1]; NC 33.172, NC_P+I 129.395)?
A: 60.661 FPKM

Q: What about the PIM3 expression ([1]; NC 37.434, NC_P+I 180.382) of the same substance?
A: 72.895 FPKM

Q: And the PPIF expression ([1]; NC 58.328, NC_P+I 188.301)?
A: 106.533 FPKM

Q: What about the “stability under physiological conditions vs full-length VIVIT peptide (15-mer)” value [2] of the same substance?
A: more stable than the full-length VIVIT peptide (15-mer)
